According to US10206394B2, “Herbicidal compounds” (Syngenta Participations AG, priority 2014, dated 2019):
Like-named read-outs stand apart in the source and are kept apart here.

Tests used:
Assay in all cases: Glasshouse assay for herbicidal activity (pre- and post-emergence), percentage phytotoxicity
Format in all cases: in vivo
[1] = system: Echinochloa crus-galli (ECHCG); details: Echinochloa crus-galli, rate 250 g/ha
How it was run: (§1)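 Sow seed in standard soil in pots; apply test herbicide after 1 day (PRE) or about 12 days (POST). Grow on in the glasshouse, watering twice daily, cool-season species at 20/16 °C and warm-season at 24/18 °C. Score visible damage (0–100%) at 20 or 15 DAA respectively.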

[2] = system: Alopecurus myosuroides (ALOMY); details: Alopecurus myosuroides, rate 250 g/ha
How it was run: as §1

Avena fatua (AVEFA) = details: Avena fatua, rate 250 g/ha
How it was run: as §1

Lolium perenne (LOLPE) = details: Lolium perenne, rate 250 g/ha
How it was run: as §1

[3] = post-emergence, 360 h, POST-emergence, visual score 15 DAA (100%=total damage, 0%=no damage), read-out: Post-emergence herbicidal activity (percentage phytotoxicity) ECHCG POST
[4] = pre-emergence, 480 h, PRE-emergence, visual score 20 DAA (100%=total damage, 0%=no damage), read-out: Pre-emergence herbicidal activity (percentage phytotoxicity) ECHCG PRE
[5] = post-emergence, 360 h, POST-emergence, visual score 15 DAA (100%=total damage, 0%=no damage), read-out: Post-emergence herbicidal activity (percentage phytotoxicity) ALOMY POST
[6] = pre-emergence, 480 h, PRE-emergence, visual score 20 DAA (100%=total damage, 0%=no damage), read-out: Pre-emergence herbicidal activity (percentage phytotoxicity) ALOMY PRE
[7] = post-emergence, 360 h, POST-emergence, visual score 15 DAA (100%=total damage, 0%=no damage), read-out: Post-emergence herbicidal activity (percentage phytotoxicity) AVEFA POST
[8] = pre-emergence, 480 h, PRE-emergence, visual score 20 DAA (100%=total damage, 0%=no damage), read-out: Pre-emergence herbicidal activity (percentage phytotoxicity) AVEFA PRE
[9] = post-emergence, 360 h, POST-emergence, visual score 15 DAA (100%=total damage, 0%=no damage), read-out: Post-emergence herbicidal activity (percentage phytotoxicity) LOLPE POST
[10] = pre-emergence, 480 h, PRE-emergence, visual score 20 DAA (100%=total damage, 0%=no damage), read-out: Pre-emergence herbicidal activity (percentage phytotoxicity) LOLPE PRE

Row | SMILES | pest or weed control at 250 g/ha [1, 3] | pest or weed control at 250 g/ha [1, 4] | pest or weed control at 250 g/ha [2, 5] | pest or weed control at 250 g/ha [2, 6] | pest or weed control at 250 g/ha (Avena fatua (AVEFA); [7]) | pest or weed control at 250 g/ha (Avena fatua (AVEFA); [8]) | pest or weed control at 250 g/ha (Lolium perenne (LOLPE); [9]) | pest or weed control at 250 g/ha (Lolium perenne (LOLPE); [10])
1 | CCc1cc(C)cc(C)c1C1C(=O)CC(CC(=O)NC(C)(C)C)C1=O (centres unmarked) [Compound B170] | 100% | 100% | 100% | 100% | 90% | 90% | 100% | 100%
2 | CCc1cc(C)cc(C)c1C1C(=O)CC(CC(N)=O)C1=O (centres unmarked) [Compound B171] | 100% | 100% | 100% | 100% | 100% | 100% | 90% | 100%
3 | C/C=C/c1cc(C)c(C2C(=O)CC(CC(=O)N3CCOCC3)C2=O)c(C)c1 (centres unmarked) [Compound B172] | 100% | 100% | 90% | 80% | 90% | 80% | 90% | 100%
4 | C/C=C/c1cc(C)c(C2C(=O)CC(CC(=O)NC(C)(C)C)C2=O)c(C)c1 (centres unmarked) [Compound B173] | 90% | 90% | 90% | 90% | 80% | 60% | 80% | 90%
5 | C#CCNC(=O)CC1CC(=O)C(c2c(C)cc(/C=C/C)cc2C)C1=O (centres unmarked) [Compound B174] | 100% | 90% | 100% | 100% | 90% | 70% | 90% | 100%
6 | C/C=C/c1cc(C)c(C2C(=O)CC(CC(N)=O)C2=O)c(C)c1 (centres unmarked) [Compound B175] | 90% | 100% | 90% | 100% | 100% | 90% | 80% | 100%
7 | Cc1cc(Br)cc(C)c1C1C(=O)CC(CC(=O)NC/C=C/Cl)C1=O (centres unmarked) [Compound B176] | 80% | 80% | 80% | 90% | 80% | 60% | 80% | 90%
8 | C/C=C/CNC(=O)CC1CC(=O)C(c2c(C)cc(Br)cc2C)C1=O (centres unmarked) [Compound B177] | 90% | 90% | 80% | 90% | 80% | 30% | 80% | 90%
9 | Cc1cc(-c2ncc(Cl)cc2F)cc(C)c1C1C(=O)CC(CC(=O)NCC(C)(C)C)C1=O (centres unmarked) [Compound B178] | 100% | 100% | 100% | 100% | 90% | 90% | 100% | 100%
10 | C=CC(C)NC(=O)CC1CC(=O)C(c2c(C)cc(C)cc2C)C1=O (centres unmarked) [Compound B179] | 100% | 100% | 90% | 90% | 80% | 70% | 90% | 100%
